Our source for the RP-LC retention time values is the METLIN SMRT retention time set (Domingo-Almenara et al. 2019).

The data set is described as follows: gradient 5% acetonitrile 3 min, to 50% in 2 min, to 85% in 15 min, held 3 min, 100 µL/min. Particulars: column: Zorbax Extend-C18 2.1 x 50 mm; eluents: water / acetonitrile, 0.1% formic acid. The essentials: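 A Zorbax Extend-C18 column (2.1 × 50 mm, 1.8 μm) run at 100 μL/min with water and acetonitrile, both containing 0.1% formic acid, separated mixtures of ~100 pure standards. The HPLC was coupled to a quadrupole time-of-flight mass spectrometer operated in positive and negative ionization mode, with dead and dwell volumes of 40 μL and 900 μL. Each retention time was taken from a computationally picked adduct peak that was then manually inspected.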
Molecule `CC1=C(c2ccc(Cl)cc2)S(=O)(=O)N=C1N1CCCN(C(=O)CC(C)C)CC1` showed an RP-LC retention time of 875 s. The value for `Cn1cc(CC(=O)NCc2ccc(F)c(Cl)c2)c2cccnc21` was 725 s; that for `Cc1cc(C)cc(NC(=O)C2CCN(S(=O)(=O)c3cc(-c4noc(C)n4)cs3)CC2)c1` was 953 s; that for `CC(C)CCNC(=O)C1(C)Cn2nc(C(=O)NCc3ccccc3F)cc2C(=O)N1C` (stereo not given) was 763 s.

Regarding `Cn1c(=O)n(C)c2cc(CNc3ccc(N4CCOCC4)cc3)ccc21`, the RP-LC retention time turned out to be 600 s. The value for `O=c1n(Cc2cccc(Cl)c2)nc2c(S(=O)(=O)N3CCc4ccccc4C3)cccn12` was 1010 s; that for `COc1ccc(CCC(=O)Nc2nc(-c3ccc(Cl)cc3)cs2)cc1` was 1120 s; that for `COc1ccc(-c2nnc(-c3ccccc3)o2)cc1S(=O)(=O)N1CCCCCC1` was 1070 s. The value for `CNS(=O)(=O)c1c[nH]c(=O)[nH]c1=O` was 624 s; that for `Cc1ccc(-n2c(=O)c3c(cc(C)n3C)n(CC(=O)Nc3ccc(F)cc3)c2=O)cc1` was 800 s; that for `CCn1nc(CNC(=O)c2ccccn2)c2ccccc21` was 796 s.

With `CC(C)CNC(=O)CC1Sc2ncccc2N(CC(C)C)C1=O` (stereo not given), the RP-LC retention time worked out at 791 s. The value for `CCc1ccccc1S(=O)(=O)N(C)CC1CCOCC1` was 902 s. Turning to `COc1cccc(C2Cn3nnc(-c4nc(-c5ccc(C(C)(C)C)cc5)no4)c3CO2)c1` (stereo not given), the RP-LC retention time is 1450 s. The value for `Cc1cccc(NC(=O)Nc2cnn(-c3ncncc3N3CCOCC3)c2)c1C` was 612 s; that for `CN1C(=O)c2cccnc2Sc2cc(NC(=O)c3ccccc3C(F)(F)F)ccc21` was 799 s. The value for `COc1cc(-c2ccc(Nc3ccccc3C(=O)O)c(OC)c2)ccc1Nc1ccccc1C(=O)O` was 1290 s; that for `Cc1csc(-c2cc(S(=O)(=O)Nc3ccc(Cl)cc3F)cn2CC(=O)N2CCCC2)n1` was 944 s; that for `COc1ccccc1OCCNC(=O)[C@@]12CCCC[C@H]1N(C)C(=O)CC2` was 663 s.

In the case of `Cc1oc(-c2[nH]ncc2C(=O)N(C)C)cc1S(=O)(=O)NCCN1CCOCC1`, the RP-LC retention time stood at 543 s.

`O=C(Cn1nc2c(c1NC(=O)c1c(F)cccc1Cl)CSC2)NCC1CCCO1` (stereo not given) gave an RP-LC retention time of 671 s. `CC1CN=C2C=C(N3CCN(C(=O)NCCc4ccccc4)CC3)N=CN21` (stereo not given) registered an RP-LC retention time of 620 s.

As to `Cc1ccc(NS(=O)(=O)c2ccc(-c3c(C)noc3C)cc2)cc1F`, the RP-LC retention time amounted to 964 s. Consider `CSc1ccc(-c2nc3cnccn3c2Nc2cccc(C)c2C)cc1`, for which the RP-LC retention time is 1060 s. The value for `c1cnc(N2CCN(c3nn4nnnc4c4ccccc34)CC2)nc1` was 807 s; that for `Cn1cc(SCC(=O)N2CCCc3ccccc32)c2ccccc21` was 942 s.

In turn, `CCS(=O)(=O)N1CC(=O)N(c2ccc(F)cc2C)C(C)(C(=O)NC2CCCCC2)C1` (stereo not given) yielded an RP-LC retention time of 919 s. The value for `O=S(=O)(c1ccc(F)cc1F)N1CCN(Cc2cccc(F)c2)C2(CCOCC2)C1` was 844 s. With `CCOC(=O)C(=O)NCC1CCC(c2nc3ccccc3n2C)CC1` (stereo not given), the RP-LC retention time turned out to be 552 s. In turn, `COC(=O)c1ccc(Cl)cc1NC(=O)N1CCN(C)c2ccccc21` returned an RP-LC retention time of 1240 s. The value for `O=C(CCC(=O)N1CCN(C(c2ccccc2)c2ccccc2)CC1)Nc1noc2ccccc12` was 718 s; that for `O=S(=O)(Cc1ccccc1)N1CC(c2nc(Cc3ccccc3)no2)C1` was 1010 s; that for `CCCn1c(=O)c(-c2ccc(C(=O)NCCCN3CCCC3)cc2)nc2ccccc21` was 653 s.

`COCCN1C(=O)[C@H]2CN(Cc3ccc(OC)c(Br)c3)C[C@H]2C1=O` displayed an RP-LC retention time of 616 s.

The molecule `O=C1NCCCCCCN[C@H]2C[C@H](C(=O)N3CCc4ccccc4C3)C[C@@H]12` returned an RP-LC retention time of 612 s. To `O=C(Nc1ccccc1)c1csc(-c2ccc(N3CCCC3)nc2)n1` belongs 728 s. The value for `CCn1cc(C(=O)NCCCOC(C)C)c(S(=O)(=O)N2CCN(c3cccc(Cl)c3)CC2)n1` was 1060 s; that for `CN(C)c1ccc(NC(=O)c2ccco2)cc1` was 532 s; that for `NS(=O)(=O)c1ccc(CCNC(=O)Cn2nc3c(N4CCOCC4)nccn3c2=O)cc1` was 613 s. The value for `COc1ccc(OC)c(-c2csc(-c3nnn(-c4ccc(C)c(C)c4)c3N)n2)c1` was 1230 s; that for `CC(=O)c1cccc(NC(=O)CN2C(=O)NC3(CCCCC3)C2=O)c1` was 711 s; that for `CCS(=O)(=O)N1CC(=O)N(c2ccc(C)cc2C)C(C)(C(=O)NCc2ccc(F)cc2)C1` (stereo not given) was 857 s. `Cc1noc2nc(CCC(=O)NC(C)c3ccccc3)nc(N3CCCC3)c12` (stereo not given) displayed an RP-LC retention time of 790 s. To `Cc1cc(-c2nnc(C3CCC3)o2)c(C)n1CC(=O)NCc1ccc(F)cc1Cl` belongs 899 s; to `COc1ccc2c(c1)C1(CCN(C(=O)c3cccs3)C1)C(=O)N2C` (stereo not given), 738 s. To `CC(=O)Nc1ccc2c(c1)CN(C(=O)c1ccc(C)cc1C)C(C(=O)N(C)C)C2` (stereo not given) belongs 778 s; to `COc1ccc2c(c1)C1(CCN(C(=O)Cc3ccc(Cl)cc3)C1)C(=O)N2C` (stereo not given), 873 s; to `CC(=O)NCc1nc(-c2ccc3oc(-c4ccccc4)nc3c2)no1`, 805 s. The value for `CCOc1ccc(S(=O)(=O)N2CCC(c3nc(C(=O)N(C)C)c(C)o3)CC2)cc1` was 843 s. On to `CCCn1ccc2sc(C)c(C(=O)N3CCOCC3)c2c1=O`, for which the RP-LC retention time amounted to 646 s. To `O=C(NCc1ccc(F)cc1)N1CCC(c2noc(-c3ccccn3)n2)C1` (stereo not given) belongs 813 s. The value for `COc1ccc(Cc2nc3nccc(-c4cccnc4)n3n2)cc1` was 692 s. The value for `COc1ccc(OC)c(S(=O)(=O)N2CCC(n3c(C)cnc3C)CC2)c1` was 630 s; that for `COc1ccc(NC(=O)CN2C(=O)c3ccccc3Sc3ncccc32)cc1` was 758 s.

`O=S(=O)(c1ccc2nc(N3CCN(c4ccccc4F)CC3)ccc2c1)N1CCOCC1` yielded an RP-LC retention time of 939 s. To `CCC(C(=O)Nc1cccc(C)c1)n1cnc2nc3c(cc2c1=O)CCCC3` (stereo not given) belongs 834 s; to `Nc1cc(C2CCN(C(=O)Nc3ccccc3C(F)(F)F)CC2)no1`, 698 s; to `CC(C)CN1CCn2cc(S(=O)(=O)N3CCN(c4ccccc4)CC3)cc2C1=O`, 921 s. The value for `COc1cccc(CN2CCn3c(nnc3[C@@H]3C[C@@H](O)CN3Cc3ccccc3)C2)c1` was 622 s; that for `Cc1[nH]c2ccc(C(=O)NC3CCCC3)cc2c1C` was 650 s. To `O=C(CCCSc1ccc(NC(=O)C2CC2)nn1)NCc1ccccc1Cl` belongs 754 s; to `O=C(O)c1cc2cc(OCc3ccccc3)ccc2[nH]1`, 903 s; to `Cc1oc(-c2[nH]ncc2C(=O)N2CCCC2)cc1S(=O)(=O)NC1CC1`, 620 s. On to `COc1ccc(C2C(C(=O)N3CCCC(C)C3)c3cc(OC)c(OC)cc3C(=O)N2C)cc1` (stereo not given), for which the RP-LC retention time amounted to 817 s.

Consider `Cn1c(=O)c(N2CCC(C(=O)NCCc3c[nH]c4ccc(Cl)cc34)CC2)nc2ccccc21`, for which the RP-LC retention time was determined as 892 s. Take `O=C(CCn1cnc2cc(-c3noc(-c4cccc(Cl)c4)n3)ccc21)N1CCOCC1`: the RP-LC retention time is 754 s. The value for `O=C(NC1CC1)c1cn(CCC2CCCCN2C(=O)c2ccoc2)nn1` (stereo not given) was 641 s; that for `CSc1ccccc1NC(=O)c1cc2nc(C)ccc2o1` was 756 s; that for `CC(C)CN1CCN(Cc2nc(-c3ccc(N4CCSCC4)nc3)no2)CC1` was 635 s. To `CCCNc1cc(N2CCC(CCC(=O)Nc3ccccc3)CC2)ncn1` belongs 704 s; to `Cc1cn2c(CCC(=O)NCCOc3ccc(F)cc3)csc2n1`, 566 s.

Regarding `CCOC(=O)c1noc2nc(C)nc(Nc3ccc(Cl)cc3)c12`, the RP-LC retention time is 1200 s.

Molecule `O=C(NCc1cccc(C(F)(F)F)c1)c1csc(C(=O)NC2CCCC2)n1` registered an RP-LC retention time of 1000 s.

As to `CCS(=O)(=O)N1CCC(c2ccccc2)C1` (stereo not given), the RP-LC retention time was found to be 791 s. The value for `COCc1nncn1C1CCN(S(=O)(=O)c2ccc(C)c(Cl)c2)CC1` was 770 s; that for `CCOC(=O)c1c(C)oc2ncnc(NCc3ccc4c(c3)OCO4)c12` was 1050 s.

Regarding `CCOC(=O)c1cc([N+](=O)[O-])sc1NC(=O)c1ccc(Cl)s1`, the RP-LC retention time is 1310 s. `O=C(Nc1nc(-c2ccncc2)cs1)C1CCCCC1` came in with an RP-LC retention time of 588 s. To `Cc1ccc(F)cc1S(=O)(=O)N1CCN(c2ccc(N3CCOCC3)nn2)CC1` belongs 592 s; to `O=C(c1cccnn1)N1C[C@@H](COCC2CC2)[C@H](c2ccncc2)C1`, 563 s.
